# Measured values taken from patent US20260265246A1 (ICAHN SCHOOL OF MEDICINE AT MOUNT SINAI, priority 2021, published 2026).
# Where two headings read alike, the source gives them in different places.
# Columns and labels:
# 5HT2A receptor [1] = target: T1, 5HT2A receptor (Homo sapiens, UniProt P28223); assay: biochemical; assay type: binding; set-up: expressed in transfected cells; crude membranes; conditions: 5HT2A Ki (nM), secondary binding assay, Cheng-Prusoff
# 5HT2A receptor [2] = target: T1, 5HT2A receptor; assay: cell-based; set-up: expressed in transfected cells; host or cells: HEK293T cells, transient co-transfection; conditions: for Emax: HEK-293T
# 5HT2A receptor [3] = target: T1, 5HT2A receptor; assay: cell-based; set-up: expressed in transfected cells; host or cells: HEK293T cells, transient co-transfection; conditions: for Emax: HEK-293T; remark: listed apart in the source
# [4] = 5HTA Gq EC50 (nM), BRET2 Gαq dissociation, HEK293T
# [5] = read-out: 5HTA Gq Emax (%), BRET2 Gαq dissociation, HEK293T, normalized to 5-HT
# [6] = 5HT2A β-Arr EC50 (nM), BRET1 beta-arrestin2 recruitment, HEK293T
# [7] = read-out: 5HT2A β-Arr Emax (%), BRET1 beta-arrestin2 recruitment, HEK293T, normalized to 5-HT
# [8] = BRET2 Gαq dissociation, HEK293T, normalized to 5-HT, read-out: 5HTA Gq Emax (%)
# [9] = BRET1 beta-arrestin2 recruitment, HEK293T, normalized to 5-HT, read-out: 5HT2A β-Arr Emax (%)
# [10] = BRET2 Gαq dissociation, HEK293T, read-out: 5HTA Gq EC50
# [11] = BRET1 beta-arrestin2 recruitment, HEK293T, read-out: 5HT2A β-Arr EC50
# T1 sequence (P28223 whole entry): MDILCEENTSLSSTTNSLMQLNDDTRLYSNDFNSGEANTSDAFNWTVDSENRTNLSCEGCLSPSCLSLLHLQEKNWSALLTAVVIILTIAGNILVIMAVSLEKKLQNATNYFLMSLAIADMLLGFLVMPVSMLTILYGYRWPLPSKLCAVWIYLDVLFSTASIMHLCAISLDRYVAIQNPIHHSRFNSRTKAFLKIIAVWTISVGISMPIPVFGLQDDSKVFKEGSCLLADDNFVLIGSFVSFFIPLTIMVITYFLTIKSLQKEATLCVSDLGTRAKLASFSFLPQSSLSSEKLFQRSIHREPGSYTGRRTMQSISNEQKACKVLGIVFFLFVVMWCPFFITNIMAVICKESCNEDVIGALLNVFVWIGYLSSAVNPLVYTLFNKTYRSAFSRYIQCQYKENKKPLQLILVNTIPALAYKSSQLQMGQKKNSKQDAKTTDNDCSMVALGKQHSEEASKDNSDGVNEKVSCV
SMILES,Ki (5HT2A receptor [1]),EC50 (5HT2A receptor [2]; [4]),Emax (5HT2A receptor [2]; [5]),EC50 (5HT2A receptor [3]; [6]),Emax (5HT2A receptor [3]; [7]),Emax (5HT2A receptor [2]; [8]),Emax (5HT2A receptor [3]; [9]),EC50 (5HT2A receptor [2]; [10]),EC50 (5HT2A receptor [3]; [11])
"CC#CCN1CCC=C(c2n[nH]c3c(Cl)cccc23)C1 [Example 149, 3-(1-(but-2-yn-1-yl)-1,2,5,6-tetrahydropyridin-3-yl)-7-chloro-1H-indazole]",364 nM,10.1 nM,49.8%,113 nM,24.2%,,,,
"[2H]C([2H])([2H])N1CCC=C(c2n[nH]c3c(Cl)cccc23)C1 [Example 150, 7-chloro-3-(1-(methyl-d3)-1,2,5,6-tetrahydropyridin-3-yl)-1H-indazole]",842 nM,13.3 nM,95.3%,29.9 nM,60.9%,,,,
"FC(F)(F)CN1CCC=C(c2n[nH]c3c(Cl)cccc23)C1 [Example 152, 7-chloro-3-(1-(2,2,2-trifluoroethyl)-1,2,5,6-tetrahydropyridin-3-yl)-1H-indazole]",389 nM,1570 nM,89.8%,1050 nM,66.5%,,,,
"FC(F)CN1CCC=C(c2n[nH]c3c(Cl)cccc23)C1 [Example 153, 7-chloro-3-(1-(2,2-difluoroethyl)-1,2,5,6-tetrahydropyridin-3-yl)-1H-indazole]",634 nM,1240 nM,,1200 nM,,83.9%,77.4%,,
"CCCN1CCC=C(c2c[nH]c3c(C)cccc23)C1 [Example 155, 7-methyl-3-(1-propyl-1,2,5,6-tetrahydropyridin-3-yl)-1H-indole]",539 nM,,,532 nM,,68.5%,34.4%,29.5 nM,
"CCCN1CCC=C(c2c[nH]c3c(F)cccc23)C1 [Example 156, 7-fluoro-3-(1-propyl-1,2,5,6-tetrahydropyridin-3-yl)-1H-indole]",164 nM,,,,,103%,58.4%,20.2 nM,61.2 nM
"CCCN1CCC=C(c2c[nH]c3c(C#N)cccc23)C1 [Example 157, 3-(1-propyl-1,2,5,6-tetrahydropyridin-3-yl)-1H-indole-7-carbonitrile]",164 nM,,,500 nM,,78%,39.3%,93 nM,
"CCCN1CCC=C(c2c[nH]c3c(CC)cccc23)C1 [Example 158, 7-ethyl-3-(1-propyl-1,2,5,6-tetrahydropyridin-3-yl)-1H-indole]",368 nM,,,120 nM,,82.2%,32.6%,78.4 nM,
CCCN1CCC=C(c2c[nH]c3c(Cl)cc(F)cc23)C1 [Example 159],126 nM,17.5 nM,90.3%,66.9 nM,39.7%,,,,
CCCN1CCC=C(c2c[nH]c3c(Cl)c(F)ccc23)C1 [Example 160],151 nM,74.5 nM,84.1%,144 nM,30.9%,,,,
"CCCN1CCC=C(c2c[nH]c3c(C)cc(F)cc23)C1 [Example 161, 5-fluoro-7-methyl-3-(1-propyl-1,2,5,6-tetrahydropyridin-3-yl)-1H-indole]",488 nM,,,311 nM,,93.2%,35.2%,84.1 nM,
"CCCN1CCC=C(c2c[nH]c3c(C)c(F)ccc23)C1 [Example 162, 6-fluoro-7-methyl-3-(1-propyl-1,2,5,6-tetrahydropyridin-3-yl)-1H-indole]",1140 nM,260 nM,,303 nM,,80.6%,23.4%,,
"FC(F)(F)CCN1CCC=C(c2n[nH]c3c(Cl)cccc23)C1 [Example 164, 7-chloro-3-(1-(3,3,3-trifluoropropyl)-1,2,5,6-tetrahydropyridin-3-yl)-1H-indazole]",> 10000 nM,518 nM,,836 nM,,52.9%,23.3%,,
"FCCCN1CCC=C(c2n[nH]c3c(Cl)cccc23)C1 [Example 165, 7-chloro-3-(1-(3-fluoropropyl)-1,2,5,6-tetrahydropyridin-3-yl)-1H-indazole]",342 nM,,,157 nM,,65%,28.7%,85.8 nM,
"Clc1cccc2c(C3=CCCN(C4CC4)C3)n[nH]c12 [Example 166, 7-chloro-3-(1-cyclopropyl-1,2,5,6-tetrahydropyridin-3-yl)-1H-indazole]",307 nM,47.1 nM,64%,120 nM,24.9%,,,,
"OCCN1CCC=C(c2n[nH]c3c(Cl)cccc23)C1 [Example 168, 2-(5-(7-chloro-1H-indazol-3-yl)-3,6-dihydropyridin-1(2H)-yl)ethan-1-ol]",8640 nM,183 nM,,1050 nM,,68.2%,41.6%,,
"CCCN1CCC=C(c2n[nH]c3cccc(C#N)c23)C1 [Example 175, 3-(1-propyl-1,2,5,6-tetrahydropyridin-3-yl)-1H-indazole-4-carbonitrile]",8250 nM,,,343 nM,,46.3%,31.6%,88.8 nM,
"N#Cc1cccc2c(C34CNCC3C4)n[nH]c12 (centres unmarked) [Example 184, 3-(3-azabicyclo[3.1.0]hexan-1-yl)-1H-indazole-7-carbonitrile]",5680 nM,423 nM,,1970 nM,,103%,68.2%,,
"Fc1cc(Cl)c2[nH]nc(C34CNCC3C4)c2c1 (centres unmarked) [Example 185, 3-(3-azabicyclo[3.1.0]hexan-1-yl)-7-chloro-5-fluoro-1H-indazole]",6740 nM,290 nM,,542 nM,,78.1%,46.1%,,
"Cc1cccc2c(C34CNCC3C4)n[nH]c12 (centres unmarked) [Example 186, 3-(3-azabicyclo[3.1.0]hexan-1-yl)-7-methyl-1H-indazole]",748 nM,231 nM,,481 nM,,98.8%,46.9%,,
"Fc1cccc2c(C34CNCC3C4)n[nH]c12 (centres unmarked) [Example 187, 3-(3-azabicyclo[3.1.0]hexan-1-yl)-7-fluoro-1H-indazole]",699 nM,136 nM,,648 nM,,71.6%,35%,,
"N#Cc1cccc2c(C34CNCCC3C4)n[nH]c12 (centres unmarked) [Example 195, 3-(3-azabicyclo[4.1.0]heptan-1-yl)-1H-indazole-7-carbonitrile]",> 10000 nM,1090 nM,,1040 nM,,77.4%,21.7%,,
"FC1(F)C2CNCC21c1n[nH]c2c(Cl)cccc12 (centres unmarked) [Example 199, 7-chloro-3-(6,6-difluoro-3-azabicyclo[3.1.0]hexan-1-yl)-1H-indazole]",3440 nM,174 nM,,956 nM,,87.1%,76.5%,,
"Clc1cccc2c(C3=CCNC3)n[nH]c12 [Example 206, 7-chloro-3-(2,5-dihydro-1H-pyrrol-3-yl)-1H-indazole]",272 nM,,,,,117%,108%,14.4 nM,44.8 nM
"CN1CC=C(c2n[nH]c3c(Cl)cccc23)C1 [Example 207, 7-chloro-3-(1-methyl-2,5-dihydro-1H-pyrrol-3-yl)-1H-indazole]",203 nM,,,129 nM,,94.7%,47.8%,50.9 nM,
